Non-standard residues stand in square brackets, D forms with d. Residues, ends and D or L forms follow the SMILES beside them. Mpa = O=C(O)CCS
System: spontaneously hypertensive rat (SHR)
Experiment: Antihypertensive test in conscious spontaneously hypertensive rats: arterial BP and pressor/depressor responses to i.v. angiotensin I and bradykinin after oral dosing
Format: in vivo
Settings: male SHR, 50 mg/kg of body weight
Description: Male SHR of the Okamoto-Aoki strain (purchased from Charles River Lakeview, Boston, Mass.) ranging in weight between 280 and 370 g are anesthetized with diethyl ether. Their left femoral arteries and veins are cannulated with polyethylene tubing of the appropriate size. Each animal is then placed in a rubber mesh jacket which is secured with four towel clamps. The animal is suspended via the towel clamps from a bar and allowed to recover from the anesthesia. The arterial cannula is connected to a Statham pressure transducer (Model P23, Gould Statham Instruments, Hato Rey, Porto Rico) which, in turn, is attached to a polygraph for recording arterial blood pressure (BP) and pulse rate.
When the BP has stabilized, the intravenous injection of the agonists, angiotensin I (AI) or bradykinin (B) is initiated. Each of the agonists is prepared daily from refrigerated stock solution (using distilled water as the diluent), and injected in a volume of 1 ml/kg (using physiological saline as the diluent) at the following doses: AI, 0.125 μg/kg and B, 5 μg/kg.
Enough time is allowed for the BP to return to preinjection levels before the next agonist is given. A dose of the compound to be tested is given orally seven to ten minutes after the injection of the last agonist. Four rats are used and the test compound is given by gastric gavage in a volume of 5 ml/kg of body weight. Heart rate and BP are measured at 5, 10, 15, 30, 45 and 60 minutes and at hourly intervals thereafter for a period of at least four hours after drug administration. At one and two hours after the test compound has been given, AI and B are injected again at the same concentration and in the same order as during the control period.

Compound: CC(C)C[C@H](NC(=O)[C@H](Cc1c[nH]cn1)NC(=O)[C@@H]1CCCN1C(=O)CCS)C(=O)O [N-[N-[1-(3-Mercapto-1-oxopropyl)prolyl]histidyl]leucine] ([Mpa]PHL-OH)
- decrease in mean arterial BP (oral (gastric gavage), measured two hours after administration): 8%
- reduction in angiotensin I response on BP (oral, angiotensin I 0.125 μg/kg i.v.): 61%
- potentiation of bradykinin response (oral, bradykinin 5 μg/kg i.v.): 564%

From patent publication US4216209A, “Tripeptide angiotensin converting enzyme inhibitors” (American Home Products Corporation, priority 1979, dated 1980)
